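All cell lines were grown in 96-well plates and treated with compound for 48 hours. Here, GI50 denotes the concentration required for 50% inhibition of growth.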 Activity calls are given as the source filed them. Rule as the data show it: active = GI50 up to about 1.1 µM and inactive = higher.
Experiments:
Assay in all cases: NCI anticancer screen, dose series, 48 h
786-0 = system: 786-0
CCRF-CEM = system: CCRF-CEM
COLO 205 = system: COLO 205
HCT-116 = system: HCT-116
HL-60 = system: HL-60
HOP-62 = system: HOP-62
HOP-92 = system: HOP-92
LXFL 529 = system: LXFL 529
Malme-3M = system: Malme-3M
OVCAR-3 = system: OVCAR-3
SF-268 = system: SF-268
SNB-19 = system: SNB-19
SW-620 = system: SW-620
TK-10 = system: TK-10
A498 = system: A498
NCI-H522 = system: NCI-H522
SK-MEL-28 = system: SK-MEL-28

Measured: GI50

O=C(/N=N/C(=O)OCc1ccccc1)OCc1ccccc1
inactive: 786-0 > 100 µM | CCRF-CEM 84.1 µM | COLO 205 > 100 µM | HCT-116 > 100 µM | HL-60 43.7 µM | HOP-62 > 100 µM | HOP-92 10.4 µM | LXFL 529 68.2 µM | Malme-3M > 100 µM | OVCAR-3 58.2 µM | SF-268 96.4 µM | SNB-19 64.9 µM | SW-620 > 100 µM | TK-10 > 100 µM

CC(C)C(=O)/C=C/c1ccccc1
inactive: 786-0 46.5 µM | A498 > 100 µM | CCRF-CEM 23.9 µM | COLO 205 > 100 µM | HCT-116 67.3 µM | HL-60 42.3 µM | HOP-92 > 100 µM | LXFL 529 > 100 µM | NCI-H522 31 µM | OVCAR-3 31 µM | SF-268 > 100 µM | SK-MEL-28 > 100 µM | SNB-19 > 100 µM | SW-620 72.1 µM

CC(=O)N1CCC(=O)/C(=C/c2ccccc2)C1
inactive: 786-0 27.7 µM | A498 56.5 µM | COLO 205 34.6 µM | HCT-116 18.1 µM | HOP-62 89.3 µM | HOP-92 33.1 µM | LXFL 529 21.9 µM | Malme-3M 91.2 µM | OVCAR-3 33.3 µM | SF-268 20.5 µM | SK-MEL-28 18 µM | SNB-19 > 100 µM | SW-620 17.6 µM | TK-10 97.3 µM

COC(=O)[C@@H]1Cc2c([nH]c3ccccc23)[C@H](c2ccccc2)N1
inactive: 786-0 37.2 µM | A498 20.9 µM | CCRF-CEM 37.3 µM | COLO 205 20 µM | HCT-116 29.4 µM | HL-60 29.9 µM | HOP-92 44.9 µM | LXFL 529 54.5 µM | Malme-3M 94 µM | NCI-H522 21.7 µM | OVCAR-3 31.6 µM | SF-268 41.7 µM | SK-MEL-28 85.1 µM | SNB-19 37.6 µM | SW-620 35.8 µM | TK-10 33 µM

CCSC(=O)C1(C)OC2CCCCC2C1=O (centres undefined)
inactive: 786-0 > 100 µM | A498 > 100 µM | CCRF-CEM > 100 µM | COLO 205 > 100 µM | HCT-116 > 100 µM | HL-60 > 100 µM | HOP-62 > 100 µM | LXFL 529 > 100 µM | Malme-3M > 100 µM | NCI-H522 > 100 µM | SF-268 > 100 µM | SK-MEL-28 > 100 µM | SNB-19 > 100 µM | SW-620 > 100 µM | TK-10 > 100 µM

CC1=C(C(=O)Nc2ccccc2)C(c2ccc(Cl)c(Cl)c2)C(C(=O)Nc2ccccc2)=C(C)N1
inactive: 786-0 12.8 µM | A498 16.7 µM | CCRF-CEM 5.06 µM | COLO 205 15.4 µM | HCT-116 10.4 µM | HOP-62 14.5 µM | LXFL 529 12.9 µM | Malme-3M 12.7 µM | NCI-H522 11.6 µM | OVCAR-3 11.7 µM | SF-268 12 µM | SK-MEL-28 12.8 µM | SNB-19 12.9 µM | SW-620 17 µM | TK-10 33.9 µM

CCOC(=O)/C([O-])=C(\C(=O)OCC)[n+]1c(C)n(C)c2ccccc21
inactive: 786-0 > 100 µM | A498 > 100 µM | CCRF-CEM > 100 µM | COLO 205 > 100 µM | HCT-116 > 100 µM | HL-60 > 100 µM | HOP-62 > 100 µM | LXFL 529 > 100 µM | Malme-3M > 100 µM | NCI-H522 > 100 µM | OVCAR-3 > 100 µM | SF-268 > 100 µM | SK-MEL-28 > 100 µM | SNB-19 > 100 µM | SW-620 > 100 µM | TK-10 > 100 µM

Reference: ChEMBL document CHEMBL1201862, “PubChem BioAssay data set” (2004)
